Where two headings read alike, the source gives them in different places.
How the values were obtained:
[1] = tested on: U937; test: cells; design: species or system AML cell lines (8); settings: Homo sapiens, U-937, 72 h, read-out: U937
[2] = tested on: MV4-11; test: cells; design: species or system AML cell lines (8); settings: Homo sapiens, MV4-11, 72 h, read-out: MV4-11
[3] = tested on: ML2; test: Secondary dose-response HTS, Cell Titer Glo; type: cell-based, human; settings: for EC50: Homo sapiens
[4] = tested on: CMS; test: cells; design: species or system AML cell lines (8); settings: 72 h, read-out: CMS
[5] = tested on: CMK; test: cells; design: species or system AML cell lines (8); settings: Homo sapiens, 72 h, read-out: CMK
[6] = tested on: M07e; test: cells; design: species or system AML cell lines (8); settings: M-07e, 72 h, read-out: M07e
[7] = tested on: MOLM-13; test: cells; design: species or system AML cell lines (8); Secondary HTS, 10-point dose-response in triplicate, Cell Titer Glo viability, four-parameter fit EC50; settings: Homo sapiens; 72 h cell viability; read-out: MOLM-13
[8] = tested on: CHRF288-11; test: cells; design: species or system AML cell lines (8); settings: 72 h, read-out: CHRF288-11
[9] = tested on: M07e; test: Secondary dose-response HTS, Cell Titer Glo; type: cell-based, human; settings: for EC50: Homo sapiens, M-07e
[10] = tested on: AMKL primary AML blast samples; test: Ex vivo drug treatment of primary AML blasts on mesenchymal stromal cells; type: cell-based; settings: Homo sapiens; primary blasts on MSC, 96 h
[11] = tested on: CMS; test: Secondary dose-response HTS, Cell Titer Glo; type: cell-based, human; settings: for EC50: Homo sapiens
[12] = tested on: MOLM-13; test: Secondary dose-response HTS, Cell Titer Glo; type: cell-based, human; settings: for EC50: Homo sapiens, MOLM-13
[13] = tested on: MLLr primary AML blast samples; test: Ex vivo drug treatment of primary AML blasts on mesenchymal stromal cells; type: cell-based; settings: Homo sapiens; primary blasts on MSC, 96 h, range over patient samples
[14] = tested on: CMK; test: Secondary dose-response HTS, Cell Titer Glo; type: cell-based, human; settings: for EC50: Homo sapiens, CMK
[15] = tested on: MV4-11; test: Secondary dose-response HTS, Cell Titer Glo; type: cell-based, human; settings: for EC50: Homo sapiens, MV4-11
[16] = tested on: U937; test: Secondary dose-response HTS, Cell Titer Glo; type: cell-based, human; settings: for EC50: Homo sapiens, U-937
[17] = tested on: CHRF288-11; test: Secondary dose-response HTS, Cell Titer Glo; type: cell-based, human; settings: for EC50: Homo sapiens
[18] = tested on: ML-2; test: cells; design: species or system AML cell lines (8); settings: Homo sapiens, ML-2, 72 h, read-out: ML-2
[19] = secondary high-throughput screen, ML-2, read-out: average effective concentration, ML-2
[20] = secondary high-throughput screen, read-out: average effective concentration, MOLM-13
[21] = secondary high-throughput screen, read-out: average effective concentration, CMK
[22] = secondary high-throughput screen, read-out: average effective concentration, MV4-11
[23] = secondary high-throughput screen, U937, read-out: average effective concentration, U937
[24] = HTS, secondary high-throughput screen, CHRF288-11, read-out: average effective concentration, CHRF288-11

SMILES	EC50 [1]	EC50 [2]	EC50 [3, 19]	EC50 [4]	EC50 [5]	EC50 [6]	EC50 [7]	EC50 [8]	EC50 [12, 20]	EC50 [14, 21]	EC50 [18]	further results
CC[C@H](NC(=O)[C@H](C)NC)C(=O)N1C[C@@H](O)C[C@H]1Cc1c(-c2[nH]c3cc(F)ccc3c2C[C@@H]2C[C@H](O)CN2C(=O)[C@H](CC)NC(=O)[C@H](C)NC)[nH]c2cc(F)ccc12 [BIRINAPANT]	> 10 µM	> 10 µM	0.001 µM	> 10 µM	> 10 µM	> 10 µM	> 10 µM	> 10 µM	–	–	–	–
CC(C)C[C@H](NC(=O)[C@H](Cc1ccccc1)NC(=O)c1cnccn1)B(O)O [Bortezomib, reference compound]	–	–	0.0012 µM	–	–	–	–	–	0.0017 µM	0.0076 µM	–	EC50 ([9]; secondary HTS, 72 h, average of triplicate, read-out: EC50 M07e): 0.001 µM; EC50 ([9]; secondary high-throughput screen, M07e, read-out: average effective concentration, M07e): 0.0015 µM; IC50 [10]: 0.02 µM; EC50 ([11]; secondary HTS, 72 h, average of triplicate, read-out: EC50 CMS): 0.001 µM; EC50 ([12]; secondary HTS, 72 h, average of triplicate, read-out: EC50 MOLM-13): 0.002 µM; EC50 ([3]; ML-2, secondary HTS, 72 h, average of triplicate, read-out: EC50 ML2): 0.001 µM; IC50 [13]: 0.0016 to 0.005 µM; EC50 ([14]; secondary HTS, 72 h, average of triplicate, read-out: EC50 CMK): 0.01 µM; EC50 ([15]; secondary HTS, 72 h, average of triplicate, read-out: EC50 MV4-11): 0.002 µM; EC50 [15, 22]: 0.0023 µM; EC50 ([16]; secondary HTS, 72 h, average of triplicate, read-out: EC50 U937): 0.02 µM; EC50 [16, 23]: 0.021 µM; EC50 ([17]; secondary HTS, 72 h, average of triplicate, read-out: EC50 CHRF288-11): 0.002 µM
O=C(O)CCCc1ccc(N(CCCl)CCCl)cc1 [CHLORAMBUCIL]	–	–	–	–	–	–	–	–	10 µM	5.9 µM	> 10 µM	EC50 ([9]; secondary high-throughput screen, […], read-out: average effective concentration, M07e): 6.9 µM; EC50 ([11]; HTS, secondary high-throughput screen, CMS, read-out: average effective concentration, CMS): 7 µM; average effective concentration, ML-2 ([3]; secondary high-throughput screen, ML-2): Inactive; EC50 [15, 22]: 8.4 µM; EC50 [16, 23]: 6.1 µM; EC50 [17, 24]: 4.9 µM
O=P1(N(CCCl)CCCl)NCCCO1 (centres unmarked) [CYCLOPHOSPHAMIDE]	> 10 µM	> 10 µM	–	> 10 µM	> 10 µM	> 10 µM	> 10 µM	> 10 µM	–	–	> 10 µM	average effective concentration, M07e [9]: Inactive; average effective concentration, CMS [11]: Inactive; average effective concentration, MOLM-13 [12]: Inactive; average effective concentration, ML-2 [3]: Inactive; average effective concentration, CMK [14]: Inactive; average effective concentration, MV4-11 [15]: Inactive; average effective concentration, U937 [16]: Inactive; average effective concentration, CHRF288-11 [17]: Inactive
NC(=O)c1cccc(N)c1 [Compound 3-AMINOBENZAMIDE]	> 10 µM	> 10 µM	3.2 µM	> 10 µM	> 10 µM	> 10 µM	–	–	3.2 µM	–	–	EC50 [17, 24]: 3 µM
CO[C@H]1C[C@@H]2CC[C@@H](C)[C@@](O)(O2)C(=O)C(=O)N2CCCC[C@H]2C(=O)O[C@H]([C@H](C)C[C@@H]2CC[C@@H](OCCO)[C@H](OC)C2)CC(=O)[C@H](C)/C=C(\C)[C@@H](O)[C@@H](OC)C(=O)[C@H](C)C[C@H](C)/C=C/C=C/C=C/1C [EVEROLIMUS]	> 10 µM	> 10 µM	–	> 10 µM	> 10 µM	> 10 µM	> 10 µM	> 10 µM	–	–	> 10 µM	–
Cc1c(CN2CCN(C(=O)[C@H](C)O)CC2)sc2c(N3CCOCC3)nc(-c3cnc(N)nc3)nc12 [GDC-0980]	> 10 µM	> 10 µM	–	> 10 µM	–	> 10 µM	> 10 µM	> 10 µM	–	0.52 µM	> 10 µM	–
O=P1(NCCCl)OCCCN1CCCl (centres unmarked) [IFOSFAMIDE]	> 10 µM	> 10 µM	–	> 10 µM	> 10 µM	> 10 µM	> 10 µM	> 10 µM	–	–	> 10 µM	–
Cc1oncc1C(=O)Nc1ccc(C(F)(F)F)cc1 [LEFLUNOMIDE]	> 10 µM	> 10 µM	–	> 10 µM	> 10 µM	> 10 µM	> 10 µM	> 10 µM	–	–	> 10 µM	–
